Structures are written as SMILES.

For 31 molecules, activity results are on record in US9879036B2, “Mitochondrial aldehyde dehydrogenase-2 binding compounds and methods of use thereof” (Aviv Therapeutics, Inc., priority 2014, dated 2018).

The target in the assay is T1, ALDH2 (Homo sapiens, UniProt P05091).
T1 construct: His-tag (N); made in house; host or cells: E. coli BL21
T1 sequence (P05091 18-517): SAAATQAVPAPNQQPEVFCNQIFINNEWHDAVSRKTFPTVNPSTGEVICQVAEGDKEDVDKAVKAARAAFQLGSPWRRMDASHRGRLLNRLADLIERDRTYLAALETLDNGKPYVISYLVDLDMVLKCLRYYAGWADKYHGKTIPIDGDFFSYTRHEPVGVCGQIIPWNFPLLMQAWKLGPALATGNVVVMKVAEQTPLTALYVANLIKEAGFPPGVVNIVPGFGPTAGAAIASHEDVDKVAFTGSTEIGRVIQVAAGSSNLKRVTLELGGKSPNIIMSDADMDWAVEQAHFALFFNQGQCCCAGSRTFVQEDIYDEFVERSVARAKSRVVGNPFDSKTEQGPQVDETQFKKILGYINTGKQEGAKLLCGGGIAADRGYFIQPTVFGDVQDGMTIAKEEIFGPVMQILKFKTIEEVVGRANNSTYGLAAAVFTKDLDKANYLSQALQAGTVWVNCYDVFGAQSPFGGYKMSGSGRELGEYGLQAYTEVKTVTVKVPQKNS
Description: ALDH2 activity with 20 μM of the compound (Table 3). The settings on record: 20 μM compound. It counts as biochemical. As for the experimental part: ALDH2 catalyzes the oxidative reaction of substrate acetaldehyde to acetic acid using NAD^+ as a cofactor. Enzymatic activity, or catalytic rate, of aldehyde dehydrogenase (ALDH2) are measured spectrophotometrically at UV wavelength λ340 nm by the accumulation of reduced product NADH derived from NAD^+. Absorbance at λ340 nm is quantitatively proportional to the amount of NADH being produced over time (6.22 O.D. unit=1 mmol of NADH, measured in a 1-cm width standard cuvette). This method is well-established in the literature [e.g. Rex et al., Alcohol Clin. Exp. Res. 9, 147 (1985)].
ALDH2 catalyzes the oxidative reaction of substrate acetaldehyde to acetic acid using NAD^+ as a cofactor. Enzymatic activity, or catalytic rate, of aldehyde dehydrogenase (ALDH2) can be measured spectrophotometrically at UV wavelength λ340 nm by the accumulation of reduced product NADH derived from NAD^+. Absorbance at λ340 nm is quantitatively proportional to the amount of NADH being produced over time (6.22 O.D. unit=1 mmol of NADH, measured in a 1-cm width standard cuvette). This method is well-established in the literature [e.g. Rex et al., Alcohol Clin. Exp. Res. 9, 147 (1985)].
ALDH2 catalyzes the oxidative reaction of substrate acetaldehyde to acetic acid using NAD^+ as a cofactor. Enzymatic activity, or catalytic rate, of aldehyde dehydrogenase (ALDH2) can be measured spectrophotometrically at UV wavelength λ340 nm by the accumulation of reduced product NADH derived from NAD^+. Because compounds of formula (I) are considered to be agonists or “activators” of ALDH2 the enzymatic activity measured will exceed 100% of the baseline enzymatic activity of the enzyme in its normal activation state. As the concentration of the compounds of formula (I) decreases from 20 micromolar to 0.16 micromolar in the presence of ALDH, a decrease in the activation of enzymatic activity is observed for the wild-type ALDH2*1/*1 and the heterozygous form ALDH2*1/*2.
For the molecule `COc1ccc(CNC(=O)c2cc(-c3ccccc3OC)cnc2OCC2CC2)cc1F` [AC74], the activity at 20 µM is 100 to 150%.
In the case of `[2H]C(O)c1cccnc1-c1ccc(OCC2CC2)c(C(=O)NCc2ccc(OC)c(F)c2)c1` (stereo not shown) [AC152], the activity at 20 µM was > 250%.
As to `CCNCc1ccccc1-c1ccc(OCC2CC2)c(C(=O)NCc2ccc(OC)c(F)c2)c1` [AC84], the activity at 20 µM fell in the range of 150 to 250%.
The result for `COc1ccc(CNC(=O)c2cc(-c3ncccc3CO)ccc2OC2CC2)cc1F` [AC104] reads 150 to 250%; that for `O=C(NCc1ccc(C(F)(F)F)cc1F)c1cc(-c2ccccc2CO)cnc1OCC1CC1` [AC51], 100 to 150%.
For `COc1ccc(CNC(=O)c2cc(-c3cnccc3CO)ccc2O)cc1F` [AC93], the activity at 20 µM fell in the range of 100 to 150%.
As for `COc1ccc(CNC(=O)c2cc(-c3cnccc3CO)ccc2OC(C)C)cc1F` [AC101], the activity at 20 µM was > 250%.
Turning to `COc1ccc(CNC(=O)c2cc(-c3ncccc3CO)ccc2OCC2CC2)c(C)c1F` [AC150], the activity at 20 µM was 150 to 250%.
The same measure for `COc1ccc(CNC(=O)c2cc(-c3ncccc3CO)ccc2NCC2CC2)cc1F` [AC42]: 150 to 250%; for `COc1ccc(CNC(=O)c2cc(-c3ncccc3CO)ccc2OC2CCCCCCC2)cc1F` [AC165]: 150 to 250%; for `COc1ccc(CNC(=O)c2cc(-c3ccccc3CCC(C)=O)cnc2OCC2CC2)cc1F` [AC81]: 100 to 150%.
The same measure for `COc1ccc(CNC(=O)c2cc(-c3cnccc3CO)ccc2OC2CCCCC2)cc1F` [AC109]: > 250%.
The result for `CCNC(=O)c1ccccc1-c1cnc(OCC2CC2)c(C(=O)NCc2ccc(OC)c(F)c2)c1` [AC80] reads 100 to 150%; that for `COc1ccc(CNC(=O)c2cc(-c3ccccc3CCO)cnc2OCC2CC2)cc1F` [AC92], 100 to 150%.
Turning to `COc1ccc(CNC(=O)c2cc(-c3ccccc3C(N)=O)cnc2OCC2CC2)cc1F` [AC91], the activity at 20 µM was 100 to 150%.
Regarding `COc1ccc(CNC(=O)c2cc(-c3nc[nH]c3CO)ccc2OCC2CC2)cc1F` [AC38], the activity at 20 µM was in the range of 150 to 250%.
With `COc1ccc(CNC(=O)c2cc(-c3ncccc3CO)ccc2OC2CCC2)cc1F` [AC106], the activity at 20 µM was 150 to 250%.
`COc1cc(F)c(CNC(=O)c2cc(-c3ncccc3CO)ccc2OCC2CC2)cc1F` [AC146]: the activity at 20 µM was > 250%.
The result for `COc1cc(OC)c(CNC(=O)c2cc(-c3ncccc3CO)ccc2OCC2CC2)cc1F` [AC148] reads 150 to 250%; that for `COc1ccc(CNC(=O)c2cc(-c3cn(C)nc3CO)ccc2OCC2CC2)cc1F` [AC39], 150 to 250%; that for `[2H]C(O)c1cccnc1-c1ccc(OCC2CC2)c(C(=O)NCc2ccc(OC([2H])([2H])[2H])c(F)c2)c1` (stereo not shown) [AC157], > 250%.
Consider `COc1ccc(CNC(=O)c2cc(-c3ncccc3CO)ccc2OC(C)C)cc1F` [AC102], for which the activity at 20 µM was > 250%.
The same measure for `CNCc1ccccc1-c1cnc(OCC2CC2)c(C(=O)NCc2ccc(OC)c(F)c2)c1` [AC70]: 100 to 150%; for `COc1ccc(CNC(=O)c2cc(-c3cnccc3CO)ccc2OC2CCCC2)cc1F` [AC107]: > 250%; for `COc1ccc(CNC(=O)c2cc(-c3c[nH]nc3CO)ccc2OCC2CC2)cc1F` [AC30]: > 250%.
With `CC(C)(C)c1ccc(CNC(=O)c2cc(-c3ccccc3CO)cnc2OCC2CC2)cc1` [AC50], the activity at 20 µM lay in the range of 100 to 150%.
The same measure for `O=C(NCc1cc(Cl)c2c(c1)OCO2)c1cc(-c2ncccc2CO)ccc1OCC1CC1` [AC45]: 100 to 150%; for `COc1ccc(CNC(=O)c2cc(-c3ccccc3C(=O)O)ccc2OCC2CC2)cc1F` [AC85]: 100 to 150%; for `COc1ccc(CNC(=O)c2cc(-c3cnn(C)c3CO)ccc2OCC2CC2)cc1F` [AC33]: > 250%.
The same measure for `CCOc1ccc(-c2cnccc2CO)cc1C(=O)NCc1ccc(OC)c(F)c1` [AC97]: 150 to 250%; for `[2H]C([2H])([2H])Oc1ccc(CNC(=O)c2cc(-c3ncccc3CO)ccc2OC([2H])([2H])C2CC2)cc1F` [AC159]: > 250%.
